Test results: patent US8110703B2, “Retinoid derivative and pharmaceutical composition and use thereof” (Anhui Medical University, priority 2008, dated 2012)
Marks after values point to notes of the source that are not given here.

What was measured:
Type in all cases: cell-based
liver cancer HepG2 cells = assay: MTT cell growth and proliferation experiment, HepG2; design: key to Inhibition Rate: (control OD570 − test OD570)/control OD570, as fraction; conditions: for Inhibition Rate: fraction
Procedure, shortened: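 After treatment, 20 ul/well of MTT (5 g/L) was added for 4 h at 37° C. The medium was then removed and 20 ul/well DMSO added to dissolve the crystals. Plates were shaken 10 min and read at 570 nm. Inhibition rate was (control OD570 − experimental OD570)/control OD570 × 100%, averaged over three experiments.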

HepG2 cells [1] = assay: γ-GT specific activity of HepG2 cells; conditions: DMSO
HepG2 cells [2] = assay: AFP secretory volume of HepG2 cells; conditions: HepG2 cells, DMSO
NB4 cells = assay: Cell cycle analysis by flow cytometer, NB4; design: S %: dose or concentration left out as unconfirmed; conditions: 72 h
Procedure, shortened: (§1)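 NB4 and K562 cells in RPMI1640 with 10% FBS were exposed to compounds […] for 72 h. Then they were fixed in 70% cold ethanol and stained with 5 ug/ml propidium iodide for cell-cycle profiling by flow cytometry.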

A549 cells = assay: Differentiation index: CEA secretory volume of A549 cells; conditions: A549 culture supernatant, 10 ug/ml, 3 d, ethanol
Method: 1.6 Detection of Differentiation Index The cultured A549 cells are randomly divided into 6 10 μg/ml drug groups, cell control groups, solvent control groups (DMSO and ethanol) and 10 μg/ml fenretinide control groups (11 in total). The control groups and drug groups are cultured for 3 days to collect respective 3 tubes of cell culture solutions which are centrifugated at a speed of 4000 r/min for 5 min to take the supernatant and detect the CEA content of the kit by using enzyme kinetics and CEA detection.

K562 cells = assay: Cell cycle analysis by flow cytometer, K562; design: S %: dose or concentration left out as unconfirmed; conditions: 72 h
Procedure, shortened: as §1

HepG2 cells [3] = assay: Cell cycle and apoptosis by flow cytometry, HepG2; conditions: HepG2, flow cytometry
A549 lung cancer cells = assay: MTT cell growth and proliferation experiment, A549; design: key to Inhibition Rate: (control OD570 − test OD570)/control OD570, as fraction
Procedure, shortened: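 Cells in DMEM/10% calf serum were treated with retinoic acid derivatives at 1, 5 and 10 ug/ml (DMSO <0.1%) for 3 d, then with MTT for 4 h at 37° C. Read-out was OD570 after DMSO solubilisation, giving % growth inhibition versus control wells. A time-course at 10 umol/L ran for 1, 2, 3 and 7 days.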

[4] = HepG2, MTT time gradient, 10 ug/ml, 1 d
[5] = HepG2, MTT time gradient, 10 ug/ml, 2 d
[6] = HepG2, MTT time gradient, 10 ug/ml, 3 d
[7] = HepG2, MTT time gradient, 10 ug/ml, 7 d
[8] = HepG2, Table 5 repeat MTT, 10 ug/ml, 3 days, DMSO

Compound: CC1=C(/C=C/C(C)=C/C=C/C(C)=C/C(=O)Oc2ccccc2C(F)(F)F)C(C)(C)CCC1 [Example 2a-03, (2-trifluoromethylphenyl)-(all-trans)-3,7-dimethyl-9-(2,6,6-trimethyl-1-cyclohexen-1-yl)-2,4,6,8-nonatetraenoate]
- OD Value (x ± s) (liver cancer HepG2 cells; HepG2, MTT OD 570 nm, 1 ug/ml, 3 d, solvent not given): 1.32 ± 0.50
- OD Value (x ± s) (liver cancer HepG2 cells; HepG2, MTT OD 570 nm, 5 ug/ml, 3 d, solvent not given): 1.32 ± 0.56
- OD Value (x ± s) (liver cancer HepG2 cells; HepG2, MTT OD 570 nm, 10 ug/ml, 3 d, solvent not given): 0.98 ± 0.19
- OD Value (x ± s) (liver cancer HepG2 cells; [4]): 1.61 ± 0.14
- Inhibition Rate (liver cancer HepG2 cells; [4]): 0.07
- OD Value (x ± s) (liver cancer HepG2 cells; [5]): 1.55 ± 0.09
- Inhibition Rate (liver cancer HepG2 cells; [5]): 0.08
- OD Value (x ± s) (liver cancer HepG2 cells; [6]): 1.24 ± 0.09
- Inhibition Rate (liver cancer HepG2 cells; [6]): 0.09
- OD Value (x ± s) (liver cancer HepG2 cells; [7]): 0.79 ± 0.08
- Inhibition Rate (liver cancer HepG2 cells; [7]): 0.36
- Inhibition Rate (liver cancer HepG2 cells; HepG2, MTT, 1 ug/ml, 3 d, solvent not given): 0.22
- Inhibition Rate (liver cancer HepG2 cells; HepG2, MTT, 5 ug/ml, 3 d, solvent not given): 0.23
- Inhibition Rate (liver cancer HepG2 cells; HepG2, MTT, 10 ug/ml, 3 d, solvent not given): 0.42
- OD Value (x ± s) (liver cancer HepG2 cells; [8]): 1.847 ± 0.091
- Inhibition Rate (liver cancer HepG2 cells; [8]): 0.468*
- γ-GT (HepG2 cells [1]): 60.6 ± 0.5 U/L
- AFP (HepG2 cells [2]): 14.7 µg/L
- G1 % (NB4 cells): 65.72%
- G2 % (NB4 cells): 5.54%
- S % (NB4 cells): 28.74%
- CEA (A549 cells): 3.9 µg/L
- G1 % (K562 cells): 45.1%
- G2 % (K562 cells): 7.6%
- S % (K562 cells): 47.3%
- Apoptosis Rate (%) (HepG2 cells [3]): 16.3* %
- G0-G1 (%) (HepG2 cells [3]): 57.3%
- G2-M (%) (HepG2 cells [3]): 3.40%
- S % (HepG2 cells [3]): 25.5%
- OD Value (x ± s) (A549 lung cancer cells; A549, MTT OD 570 nm, 1 ug/ml, 3 d, solvent ethanol): 1.639 ± 0.115
- OD Value (x ± s) (A549 lung cancer cells; A549, MTT OD 570 nm, 5 ug/ml, 3 d, solvent ethanol): 1.555 ± 0.162
- OD Value (x ± s) (A549 lung cancer cells; A549, MTT OD 570 nm, 10 ug/ml, 3 d, solvent ethanol): 1.382 ± 0.133
- OD Value (x ± s) (A549 lung cancer cells; A549, MTT time gradient, 10 ug/ml, 1 d): 0.902 ± 0.055
- Inhibition Rate (A549 lung cancer cells; A549, MTT time gradient, 10 ug/ml, 1 d, fraction): 0.016
- OD Value (x ± s) (A549 lung cancer cells; A549, MTT time gradient, 10 ug/ml, 2 d): 1.066 ± 0.015
- Inhibition Rate (A549 lung cancer cells; A549, MTT time gradient, 10 ug/ml, 2 d, fraction): 0.271
- OD Value (x ± s) (A549 lung cancer cells; A549, MTT time gradient, 10 ug/ml, 3 d): 0.635 ± 0.033
- Inhibition Rate (A549 lung cancer cells; A549, MTT time gradient, 10 ug/ml, 3 d, fraction): 0.315
- OD Value (x ± s) (A549 lung cancer cells; A549, MTT time gradient, 10 ug/ml, 7 d): 1.393 ± 0.043
- Inhibition Rate (A549 lung cancer cells; A549, MTT time gradient, 10 ug/ml, 7 d, fraction): 0.328
- Inhibition Rate (A549 lung cancer cells; A549, MTT, 1 ug/ml, 3 d, solvent ethanol, given as fraction): 0.122
- Inhibition Rate (A549 lung cancer cells; A549, MTT, 5 ug/ml, 3 d, solvent ethanol, given as fraction): 0.167
- Inhibition Rate (A549 lung cancer cells; A549, MTT, 10 ug/ml, 3 d, solvent ethanol, given as fraction): 0.260
